These results are taken from patent US20260151403A1, “NEK7 DEGRADERS AND METHODS OF USE THEREOF” (Captor Therapeutics S.A., priority 2022, published 2026).

One experiment concerns the target NEK7-HiBiT protein (Homo sapiens, UniProt Q8TDX7). Kind of experiment: NEK7-HiBiT degradation assay (Nano-Glo HiBiT Lytic Assay) in HEK293 NEK7-HiBiT cells. The class given is cell-based. As to conditions: 24 h, conc. 0.1, 1 and 10 μM tested, concentration of the table values not stated, mean of 3 technical replicates. The protocol: HEK293 NEK7-HiBiT cells were generated using CRISPR-Cas9 system. HEK293 cells were transformed with pSpCas9-BB-2A-Puro v2.0 plasmid carrying gRNA targeting the N-terminus of NEK7 and ssODN template containing the HiBiT tag sequence with flanking homology sequences. Neon Transfection System (Thermo Fisher Scientific) was used for electroporation. HEK293 NEK7-HiBiT cells were cultured with DMEM Glutamax (Gibco) supplemented with 10% heat inactivated FBS (Gibco). After transfection the culture medium was changed to DMEM Glutamax with 10% heat-inactivated FBS and 1% Penicillin-Streptomycin (Biowest) supplemented with Puromycin (2 μg/ml; Invivogen) for clonal selection. In order to isolate single cell clones for further validation and analysis, limiting dilution cloning in 96-well plates was performed. When the single clones reached confluency, HiBiT Lytic Assay (Promega) was performed in order to identify HiBiT positive clones. The clone selected for further studies was verified and validated using genotyping and HiBiT Blotting (Promega).
Selected clone of HEK293 NEK7-HiBiT cells was maintained in the DMEM-Glutamax medium supplemented with 10% of heat-inactivated FBS (Gibco) and 1% of Penicillin-Streptomycin Solution 100x (Biowest) at 37° C., 5% CO2 and subcultured every 2-3 days.
For Nano-Glo HiBiT Lytic Assay HEK293 NEK7-HiBiT cells were seeded at the density 2×10^3 cells in triplicates in the 40 μL of growth medium per single well on 384 well plate (Greiner Bio-One). Compounds or DMSO were added to treatment plates using Echo555 Liquid Handler and incubated at 37° C., 5% CO2 for 24 hours. After incubation 40 μL of Nano-Glo HiBiT Lytic Reagent (prepared according to the manufacturer protocol) were added to 40 μL of the cell culture medium present in each well. The plate content was briefly mixed (460 rpm) on an orbital shaker to ensure cell lysis. The plate was left at RT protected from light for another 10 min to stabilize the luminescent signal. The luminescence signal was measured using CLARIOstar Multimode Plate Reader. Focus and gain were adjusted to DMSO treated cells. The results were calculated as the NEK7-HiBiT % relative to the DMSO control of 3 technical replicates relative to the DMSO control.
HEK293 NEK7-HiBiT cells were treated with the compounds (conc. 0.1, 1 and 10 μM) or DMSO for 24 h. After incubation with compounds NEK7-HiBiT degradation was measured as a luminescence signal using CLARIOstar Multimode Plate reader.
Additionally, compounds reducing NEK7-HiBiT protein level by >=50% at 0.1 μM, were also identified.

The target of experiment [1] is T1, [NEK7]-[compound of formula (I)]-[CRBN/DDB1] complex (Homo sapiens, UniProt Q8TDX7+Q96SW2). Kind of experiment: AlphaLISA dose response ternary complex formation assay. The class given is binding. As to conditions: 1 μM compound, normalized to maximum signal of Compound 2 (positive control) and DMSO background; for activation at 1 µM: read-out: Normalized AlphaLISA ternary complex average signal at 1 μM molecule. The protocol: The effect of the molecular glue compounds of the invention on the formation of a ternary complex composed of [NEK7]-[compound of formula (I)]-[CRBN/DDB1] was investigated with two methods: AlphaLISA dose response assay or HTRF ternary complex assay.
Two types of protein solution were prepared: • 200 nM biotinylated NEK7, 40 μg/ml AlphaScreen Streptavidin-coated Donor Beads in HBS (10 mM HEPES, 150 mM NaCL, pH 7.4) buffer with 0.1% Tween-20 and 1 mM DTT, • 200 nM 6×His-CRBN/Strep-DDB1, 40 μg/ml AlphaLISA Anti-6×His Acceptor beads in HBS buffer with 0.1% Tween-20 and 1 mM DTT.
The prepared solutions were incubated at room temperature for 30 min and then the solution containing the donor beads was mixed with the solution containing the acceptor beads.
The tested compounds were dispensed onto a white 384-well AlphaPlate 384 SW. DMSO was backfilled to all wells, resulting in a final DMSO content of 2%. Wells containing only DMSO served as background. Next, 10 μl of solution with donor and acceptor beads was added to the wells.
The plate was sealed with transparent film and shaken using a VibroTurbulator for 60 sec at room temperature, level 3. The plate was then spun down shortly (10 s, 1000 rcf, room temperature) and incubated at 25° C. for 30 min.
The read-out was performed with PerkinElmer Enspire Multimode Plate Reader (method for AlphaLISA 384-well low volume, Filterset: λexc=680 nm, λem=615 nm).
The results were analyzed as follows: • 1) an average of luminescence for background signal was calculated and used as a negative control; • 2) average of the maximum measured luminescence for Compound 2 was calculated and used as an internal positive control; • 3) raw luminescence values were normalized against positive and negative controls; • 4) Normalized responses to Compound 2 were determined.
For orientation: Bead proximity is the source of the signal in Alpha formats.

Experiment [2] deals with T1, [NEK7]-[compound of formula (I)]-[CRBN/DDB1] complex. Put plainly: HTRF ternary complex assay. The experiment is classed as binding. As to conditions: dose-response, 180 min at 25° C.; for EC50: read-out: HTRF ternary complex Average pEC50 by molecule (converted). The protocol:
The effect of the molecular glue compounds of the invention on the formation of a ternary complex composed of [NEK7]-[compound of formula (I)]-[CRBN/DDB1] was investigated.
Mix solution of proteins and reagents was prepared: • 24 nM NEK7, 52.8 nM 6×His-CRBN/Strep-DDB1, 3 nM of Streptavidin-Eu cryptate […] and 6.67 nM of Anti-6×his-d2 […] was prepared in PPI Europium detection buffer (Cisbio) with 1 mM DTT.
The tested compounds in dose-response were dispensed onto a white 384-well low volume plate (Greiner, 784075). DMSO was backfilled to all wells, resulting in a final DMSO content of 0.5%. Wells containing only DMSO served as background.
The plate was sealed with transparent film and shaken using a VibroTurbulator for 60 sec at level 3.
The plate was then spun down shortly (10 s, 1000 rcf) and incubated at 25° C. for 180 min.
The read-out was performed with plate reader (Pherastar, BMG Labtech) in time resolved fluorescence mode. Filterset: TR 337 665 620.
The results were analyzed as follows: • 1) an average of fluorescence for background signal was calculated and used as a negative control; • 2) raw fluorescence values for tested compounds were normalized against negative controls; • 3) saturation curve was fitted to specific binding with Hill slope model; • 4) EC50 and pEC50 values were determined.
In general terms: Time-resolved FRET reads energy transfer from a long-lived donor to a nearby acceptor.

Sequence of NEK7-HiBiT protein (Q8TDX7 whole entry): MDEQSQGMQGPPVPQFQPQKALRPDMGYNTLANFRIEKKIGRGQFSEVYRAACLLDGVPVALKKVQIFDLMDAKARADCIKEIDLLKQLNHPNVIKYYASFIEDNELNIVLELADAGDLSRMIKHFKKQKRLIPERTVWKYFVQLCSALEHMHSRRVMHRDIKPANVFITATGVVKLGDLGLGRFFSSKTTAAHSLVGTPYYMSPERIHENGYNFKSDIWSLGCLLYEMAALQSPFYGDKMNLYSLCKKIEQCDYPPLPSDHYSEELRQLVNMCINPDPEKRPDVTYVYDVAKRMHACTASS
Sequence of NEK7-HiBiT protein (Q96SW2 whole entry, further chain): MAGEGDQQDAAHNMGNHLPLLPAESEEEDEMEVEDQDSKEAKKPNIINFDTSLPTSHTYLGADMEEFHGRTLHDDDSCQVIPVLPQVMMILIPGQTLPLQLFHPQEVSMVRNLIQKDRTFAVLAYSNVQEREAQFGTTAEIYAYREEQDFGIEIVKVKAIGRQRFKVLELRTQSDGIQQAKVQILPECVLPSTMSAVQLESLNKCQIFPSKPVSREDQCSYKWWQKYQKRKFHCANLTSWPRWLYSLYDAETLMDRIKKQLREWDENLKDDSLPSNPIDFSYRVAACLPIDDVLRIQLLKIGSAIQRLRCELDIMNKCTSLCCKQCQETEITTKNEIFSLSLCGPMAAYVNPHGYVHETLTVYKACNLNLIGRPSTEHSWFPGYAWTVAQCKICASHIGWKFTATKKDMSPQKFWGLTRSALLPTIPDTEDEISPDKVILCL
Sequence of NEK7-HiBiT protein (Q16531 whole entry partner): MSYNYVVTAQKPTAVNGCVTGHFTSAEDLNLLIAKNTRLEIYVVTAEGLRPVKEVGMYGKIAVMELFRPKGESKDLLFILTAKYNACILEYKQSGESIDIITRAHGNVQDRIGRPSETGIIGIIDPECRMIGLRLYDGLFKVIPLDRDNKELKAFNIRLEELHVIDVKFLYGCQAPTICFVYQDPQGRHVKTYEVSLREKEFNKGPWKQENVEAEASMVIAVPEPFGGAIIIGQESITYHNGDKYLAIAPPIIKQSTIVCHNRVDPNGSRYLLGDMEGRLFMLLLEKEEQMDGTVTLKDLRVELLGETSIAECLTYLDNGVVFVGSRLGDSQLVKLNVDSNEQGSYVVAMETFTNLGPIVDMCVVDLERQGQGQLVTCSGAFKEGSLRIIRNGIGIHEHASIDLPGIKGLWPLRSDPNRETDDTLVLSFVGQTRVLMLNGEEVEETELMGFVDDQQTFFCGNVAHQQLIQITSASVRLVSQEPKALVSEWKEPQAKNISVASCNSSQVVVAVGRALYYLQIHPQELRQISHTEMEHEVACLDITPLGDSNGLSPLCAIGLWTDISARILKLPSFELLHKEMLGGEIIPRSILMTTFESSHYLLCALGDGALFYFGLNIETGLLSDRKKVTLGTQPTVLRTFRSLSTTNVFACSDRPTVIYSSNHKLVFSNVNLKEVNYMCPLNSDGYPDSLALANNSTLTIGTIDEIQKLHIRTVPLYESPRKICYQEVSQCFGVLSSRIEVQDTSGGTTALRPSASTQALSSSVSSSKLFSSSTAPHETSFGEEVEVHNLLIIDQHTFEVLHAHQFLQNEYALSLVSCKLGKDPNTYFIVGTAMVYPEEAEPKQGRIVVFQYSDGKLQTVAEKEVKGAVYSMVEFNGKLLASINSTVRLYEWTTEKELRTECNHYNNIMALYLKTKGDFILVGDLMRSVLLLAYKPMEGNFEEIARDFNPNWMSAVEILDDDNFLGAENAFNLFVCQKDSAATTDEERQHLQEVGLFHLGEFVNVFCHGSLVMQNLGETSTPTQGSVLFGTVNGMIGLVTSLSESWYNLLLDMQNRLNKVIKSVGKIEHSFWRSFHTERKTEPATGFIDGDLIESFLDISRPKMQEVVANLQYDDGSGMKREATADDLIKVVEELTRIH
T1 sequence (Q8TDX7 whole entry): as the sequence (Q8TDX7 whole entry) above
T1 sequence (Q96SW2 whole entry): as the sequence (Q96SW2 whole entry, further chain) above
T1 sequence (Q16531 whole entry partner): as the sequence (Q16531 whole entry partner) above

For the compound “3-(5-((2R,6R)-6-butyltetrahydro-2H-pyran-2-yl)-1-oxoisoindolin-2-yl)piperidine-2,6-dione and 3-(5-((2S,6S)-6-butyltetrahydro-2H-pyran-2-yl)-1-oxoisoindolin-2-yl)piperidine-2,6-dione [69 Isomer 2]”, the “Levels of NEK7-HiBiT Protein (as a % of DMSO control)” value (“Levels … (as a % of DMSO control)” for short) on NEK7-HiBiT protein was “B (Levels of NEK7-HiBiT Protein > 25% and ≤50%)”. The “Normalized AlphaLISA ternary complex average signal at 1 μM molecule” value in experiment [1] is “B (Normalized activity > 20% and <80%)”. The “HTRF ternary complex Average pEC50 by molecule” value in experiment [2] is “++++ (7.0 > pEC50 > 6.5)”.
Take “3-(5-((2R,6S)-6-butyltetrahydro-2H-pyran-2-yl)-1-oxoisoindolin-2-yl)piperidine-2,6-dione and 3-(5-((2S,6R)-6-butyltetrahydro-2H-pyran-2-yl)-1-oxoisoindolin-2-yl)piperidine-2,6-dione [69 Isomer 1]”: the “Levels … (as a % of DMSO control)” value on NEK7-HiBiT protein is listed as “A (Levels of NEK7-HiBiT Protein ≤ 25%)”. Besides, the “Normalized AlphaLISA ternary complex average signal at 1 μM molecule” value in experiment [1] is reported as “A (Normalized activity > 80%)”. For the same compound, in experiment [2], the “HTRF ternary complex Average pEC50 by molecule” value is “+++ (6.5 > pEC50 > 6.0)”.
For the compound `CCCCC1CCC(c2ccc3c(c2)CN(C2CCC(=O)NC2=O)C3=O)NC1` (mixture of isomers) [Compound 37, 3-(5-(5-butylpiperidin-2-yl)-1-oxoisoindolin-2-yl)piperidine-2,6-dione], the “Levels … (as a % of DMSO control)” value at NEK7-HiBiT protein was “B (Levels of NEK7-HiBiT Protein > 25% and ≤50%)”. Moreover, in experiment [1], the activation at 1 µM was more than 80%. For the same compound, the EC50 in experiment [2] is 0.1 to 0.316 µM.
On to `CCCCC1CCCC(c2ccc3c(c2)CN(C2CCC(=O)NC2=O)C3=O)N1` (mixture of isomers) [Compound 40, 3-(5-(6-butylpiperidin-2-yl)-1-oxoisoindolin-2-yl)piperidine-2,6-dione], for which, at NEK7-HiBiT protein, the “Levels … (as a % of DMSO control)” value was “A (Levels of NEK7-HiBiT Protein ≤ 25%)”. Also, the activation at 1 µM in experiment [1] was more than 80%. Besides, in experiment [2], the EC50 is 0.1 to 0.316 µM.
In the case of `O=C1CCC(N2Cc3cc(C4CCC(c5ccccc5)CN4)ccc3C2=O)C(=O)N1` (single isomer, unassigned) [32 Isomer 1, 3-(1-oxo-5-(5-phenylpiperidin-2-yl)isoindolin-2-yl)piperidine-2,6-dione], on NEK7-HiBiT protein, the “Levels … (as a % of DMSO control)” value is listed as “D (Levels of NEK7-HiBiT Protein ≥ 75%)”. In addition, the “Normalized AlphaLISA ternary complex average signal at 1 μM molecule” value in experiment [1] was “C (Normalized activity > 10% and <20%)”. The EC50 in experiment [2] was more than 3.16 µM.
For the compound `O=C1CCC(N2Cc3cc(C4CCC(c5ccccc5)CN4)ccc3C2=O)C(=O)N1` (single isomer, unassigned) [32 Isomer 2, 3-(1-oxo-5-(5-phenylpiperidin-2-yl)isoindolin-2-yl)piperidine-2,6-dione], the “Levels … (as a % of DMSO control)” value at NEK7-HiBiT protein was “A (Levels of NEK7-HiBiT Protein ≤ 25%)”. In experiment [1], the “Normalized AlphaLISA ternary complex average signal at 1 μM molecule” value is “A (Normalized activity > 80%)”. The EC50 in experiment [2] is 0.316 to 1 µM.
As for `CC(=O)NC1CCC(c2ccc3c(c2)CN(C2CCC(=O)NC2=O)C3=O)NC1` (single isomer, unassigned) [33 Isomer 1, N-(6-(2-(2,6-dioxopiperidin-3-yl)-1-oxoisoindolin-5-yl)piperidin-3-yl)acetamide], the “Levels … (as a % of DMSO control)” value at NEK7-HiBiT protein was “A (Levels of NEK7-HiBiT Protein ≤ 25%)”. Further, the activation at 1 µM in experiment [1] is 20 to 80%. For the same compound, in experiment [2], the EC50 is 0.1 to 0.316 µM.
With `CC(=O)NC1CCC(c2ccc3c(c2)CN(C2CCC(=O)NC2=O)C3=O)NC1` (single isomer, unassigned) [33 Isomer 2, N-(6-(2-(2,6-dioxopiperidin-3-yl)-1-oxoisoindolin-5-yl)piperidin-3-yl)acetamide], the “Levels … (as a % of DMSO control)” value at NEK7-HiBiT protein is “B (Levels of NEK7-HiBiT Protein > 25% and ≤50%)”. Further, in experiment [1], the “Normalized AlphaLISA ternary complex average signal at 1 μM molecule” value is “B (Normalized activity > 20% and <80%)”. Also, the “HTRF ternary complex Average pEC50 by molecule” value in experiment [2] is reported as “++++ (7.0 > pEC50 > 6.5)”.
`O=C1CCC(N2Cc3cc(C4CCC(Cc5ccccc5)CN4)ccc3C2=O)C(=O)N1` (single isomer, unassigned) [35 Isomer 1, 3-(5-(5-benzylpiperidin-2-yl)-1-oxoisoindolin-2-yl)piperidine-2,6-dione]: the “Levels … (as a % of DMSO control)” value on NEK7-HiBiT protein is “B (Levels of NEK7-HiBiT Protein > 25% and ≤50%)”. Moreover, in experiment [1], the activation at 1 µM was more than 80%. Moreover, in experiment [2], the EC50 was 0.1 to 0.316 µM.
Regarding `O=C1CCC(N2Cc3cc(C4CCC(Cc5ccccc5)CN4)ccc3C2=O)C(=O)N1` (single isomer, unassigned) [35 Isomer 2, 3-(5-(5-benzylpiperidin-2-yl)-1-oxoisoindolin-2-yl)piperidine-2,6-dione], the “Levels … (as a % of DMSO control)” value on NEK7-HiBiT protein is “B (Levels of NEK7-HiBiT Protein > 25% and ≤50%)”.
For the compound `CC(C)C1CCC(c2ccc3c(c2)CN(C2CCC(=O)NC2=O)C3=O)NC1` (single isomer, unassigned) [55 Isomer 1, 3-(5-(5-isopropylpiperidin-2-yl)-1-oxoisoindolin-2-yl)piperidine-2,6-dione], the “Levels … (as a % of DMSO control)” value on NEK7-HiBiT protein is “C (Levels of NEK7-HiBiT Protein > 50% and <75%)”. Also, in experiment [1], the “Normalized AlphaLISA ternary complex average signal at 1 μM molecule” value is “B (Normalized activity > 20% and <80%)”. Further, the EC50 in experiment [2] was 0.316 to 1 µM.
On to `CC(C)(C)C(=O)OCN1C(=O)CCC(N2Cc3cc(C4CCCCN4)ccc3C2=O)C1=O` (centres unmarked) [Compound 63, (2,6-dioxo-3-(1-oxo-5-(piperidin-2-yl)isoindolin-2-yl)piperidin-1-yl)methyl pivalate], for which, on NEK7-HiBiT protein, the “Levels … (as a % of DMSO control)” value is “A (Levels of NEK7-HiBiT Protein ≤ 25%)”.
